Consider 64 molecules from patent US20150164899A1, “INHIBITION OF ADAPTOR ASSOCIATED KINASE 1 FOR THE TREATMENT OF PAIN” (priority 2012, published 2015).

The test addresses T1, AAK1 (full length human) in transfected HEK293F cells (Homo sapiens, UniProt Q2M2I8).
T1 construct: expressed in transfected cells; host or cells: HEK293F
Nature of the test: HEK281 cell-based assay (phospho-mu2 Western blot). To be noted: HEK281 cell-based assay, read-out: CBA IC50. The method, then:
HEK293F cells were cultured in media containing DMEM (Gibco, cat. #11965), 10% FBS (SAFC Biosciences, cat. #12103C), 1×GPS (glutamine, penicillin and streptomycin). On day one, cells were plated on a 10 cm dish so that they are ˜80% confluent at time of transfection. Roughly 12 million cells were in a 10 cm dish at time of transfection. On day two, each dish was transfected with 48 ug DNA and 144 ul Lipofectamine 2000 (Invitrogen, cat.#11668-019). The DNA was comprised of a mixture (per 10 cm dish) containing 3 ug AAK1/HA/pIRES (full length human, NCBI accession no. NP_055726.2), 45 μg Flag/AP2MI/pcDNA (full length human), and 1.5 ml OPTI-MEM. The Lipofectamine 2000 is made up of a mixture (per 10 cm dish) containing 144 μl Lipofectamine 2000 and 1.5 ml OPTI-MEM. Each mixture was transferred to individual 15 ml tubes and incubated at RT for 5 minutes, and then the two mixes were combined and incubated at RT for 20 minutes. Growth media was then aspirated from each 10 cm plate and replaced with 10 ml of DMEM+10% FBS (no GPS). Finally, 3 ml DNA/Lipofectamine mix was added to each 10 cm dish and mix gently followed by incubate of plate overnight at 37° C. and 5% CO2.
On day three, compounds were diluted in 100% DMSO at 1000× final concentration, followed by 3-fold serial dilutions for a total of 5 concentrations tested. Four compounds were tested per 10 cm dish. One ul of each compound dilution was then pipetted into a deep-well, 96-well plate, followed by addition of 500 μl DMEM+0.5% FBS into each well for a 2× final concentration of each compound. Cells were resuspended in a 10 cm dish by simple pipetting (HEK293 cells come off the plate that easy at this point) and then transferred to a 50 ml conical tube and pelleted by centrifugation at 1000 rpm for 5 min. Cell pellets were then resuspended in 2.75 ml DMEM+0.5% FBS per 10 cm dish and 100 μl of cell suspension transferred into each well of 96-well TC plate. Finally, 100 μl of 2× compound diluted in DMEM+0.5% FBS was then added into wells containing cell suspension for a 1× final concentration. Plates were then incubated at 37° C. and 5% CO2 for 3 hours followed by transferring of cell suspensions from each well into 12-tube PCR strips. The PCR strips were spun in a tip rack at 1000 rpm for 5 minutes to pellet cells and media was then removed by pipetting without disturbing the cell pellet.
To prepare for Western Blot analysis, cell pellets were resuspend in 40 ul 1×LDS-PAGE sample buffer (Invitrogen, cat.# NP0008)+2× Halt phophatase and protease inhibitor cocktail (Thermo Scientific, cat.#1861284), followed by sonicating each with microtip sonicator set at 5 for 8-10 seconds. Five ul of 10× NuPage Sample Reducing Agent (with […]) was to each sample followed by heat denaturing at 70 C. for 10 min on PCR machine. A total of 10 μl per sample was loaded into each lane of a 4-20% Tris-Glycine Criterion 26-well gel (Biorad, cat.#345-0034) for the phospho-mu2 blot and 10 μl per lane in a 4-12% Bis-Tris (+MES buffer) NuPAGE 26-well gel (Invitrogen, cat.# WG1403BX10) for the mu2 blot. For controls, 2 ng of phospho-mu2 or 20 ng mu2/Flag proteins were loaded in the last well of each gel. After SDS-PAGE, samples on each gel were transferred to PVDF membrane using an iBlot and membranes were blocked for one hour in TBST+5% milk, followed by wash 3× for 5-10 min with TBST. Criterion gels were probed with rabbit anti-phospho-mu2 (1:5000; a rabbit polyclonal antibody produced by New England Peptide and affinity purified at Lexicon) in TBST+5% BSA, whereas, NuPAGE gels were probed with mouse anti-Flag (1:500; Sigma, cat.# F1804) in TBST+5% milk, and these primary antibodies were incubated overnight at 4° C. on a rocker.

The mark [1] stands for this setting: pyrazolo[1,5-a]pyrimidine-based inhibitors.
Setting [2] is: Table 1 imidazo[1,2-b]pyridazines.

Like-named read-outs stand apart in the source and are kept apart here.

T1 sequence (Q2M2I8 1-863 isoform Q2M2I8-2): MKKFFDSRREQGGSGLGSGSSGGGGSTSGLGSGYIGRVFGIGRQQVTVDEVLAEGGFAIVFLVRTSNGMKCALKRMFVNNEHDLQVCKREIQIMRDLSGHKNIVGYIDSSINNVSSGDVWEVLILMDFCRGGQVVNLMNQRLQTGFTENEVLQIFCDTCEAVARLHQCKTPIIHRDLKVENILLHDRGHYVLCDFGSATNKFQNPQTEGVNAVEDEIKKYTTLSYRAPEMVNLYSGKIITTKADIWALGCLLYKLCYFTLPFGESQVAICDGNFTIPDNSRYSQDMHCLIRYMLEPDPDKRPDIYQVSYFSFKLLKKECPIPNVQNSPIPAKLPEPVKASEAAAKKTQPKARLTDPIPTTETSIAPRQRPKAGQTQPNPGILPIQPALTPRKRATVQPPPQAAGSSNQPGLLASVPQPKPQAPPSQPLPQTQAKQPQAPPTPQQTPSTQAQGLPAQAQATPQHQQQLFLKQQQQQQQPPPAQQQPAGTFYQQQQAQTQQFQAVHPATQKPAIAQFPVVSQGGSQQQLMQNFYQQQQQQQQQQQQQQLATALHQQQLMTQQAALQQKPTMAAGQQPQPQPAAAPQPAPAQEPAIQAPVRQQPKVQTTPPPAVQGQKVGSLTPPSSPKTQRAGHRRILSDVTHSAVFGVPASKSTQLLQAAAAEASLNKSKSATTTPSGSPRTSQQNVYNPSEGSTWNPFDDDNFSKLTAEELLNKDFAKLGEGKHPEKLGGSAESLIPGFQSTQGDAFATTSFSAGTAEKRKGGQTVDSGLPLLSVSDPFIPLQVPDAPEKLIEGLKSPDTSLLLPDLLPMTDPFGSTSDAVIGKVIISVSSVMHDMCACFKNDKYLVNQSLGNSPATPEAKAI

A word on the IC50: it is the concentration that inhibits the measured activity by half. Consider `Brc1cnn2ccc(NCCCOC3CCCC3)nc12`, for which, under setting [1], the IC50 is no more than 1000 nM.

Consider `CC(C)(C)OC(=O)N1CCC[C@H]1CNc1ccn2ncc(-c3ccccc3)c2n1`, for which, under setting [1], the IC50 was no more than 100 nM.

For `CCc1ccccc1-c1cnn2ccc(NC[C@@H]3CCCN3C(=O)OC(C)(C)C)nc12`, the IC50 under setting [1] was no more than 100 nM.

Take `CC(C)OC(=O)N(C)CCNc1ccn2ncc(-c3ccc(CN)cc3)c2n1`: under setting [1], the IC50 is no more than 100 nM.

As for `CC(C)OC(=O)N1CCN(c2ccn3ncc(-c4cccn(C)c4=O)c3n2)CC1`, the IC50 under setting [1] was no more than 100 nM.

As for `COc1cnccc1-c1cnn2ccc(NCCCOC3CCCC3)nc12`, the IC50 under setting [1] was no more than 100 nM.

`COc1cnccc1-c1cnn2ccc(N3CCN(C(=O)OC(C)C)CC3)nc12`: the IC50 under setting [1] is no more than 100 nM.

Consider `CCCCNc1ccn2ncc(-c3ccc(C(=O)NCCN)cc3)c2n1`, for which the IC50 under setting [1] is no more than 100 nM.

As to `CC(C)NC(=O)N1CCN(c2ccc3ncc(-c4ccccc4)n3n2)CC1`, the IC50 under setting [2] is no more than 100 nM.

Turning to `CC(C)(C)CCNc1ccn2ncc(-c3ccc(C(=O)NCCN)cc3)c2n1`, the IC50 under setting [1] was no more than 1000 nM.

Consider `COc1cnccc1-c1cnn2ccc(NCCOC3CCCC3)nc12`, for which the IC50 under setting [1] is no more than 100 nM.

Turning to `CC(C)OC(=O)N1CCC[C@H]1CNc1ccc2ncc(Cl)n2n1`, the IC50 under setting [2] is no more than 100 nM.

Take `COc1cnccc1-c1cnc2ccc(-c3cccc(C(=O)CCC(C)C)c3)nn12`: the concentration for half-maximal inhibition (IC50) under setting [2] was no more than 100 nM.

As for `CC(C)(C)OC(=O)N1CCC[C@H]1CCNc1ccc2ncc(-c3ccc(CN)cc3)n2n1`, the IC50 under setting [2] is no more than 100 nM.

As to `CC(C)OC(=O)N(C)CCNc1ccn2ncc(-c3ccc(C4CCCN4)cc3)c2n1` (stereo not shown), the IC50 under setting [1] is no more than 10 nM.

`CCCCSc1ccc2ncc(-c3ccc(CN)cc3)n2n1`: the IC50 under setting [2] was no more than 1000 nM.

`CN(CCNc1ccc2ncc(-c3ccccc3)n2n1)C(=O)OC(C)(C)C`: under setting [2], the IC50 was no more than 100 nM.

Turning to `COCCNc1ccn2ncc(-c3ccc(C(=O)NCCNC(=O)OC(C)(C)C)cc3)c2n1`, the IC50 under setting [1] was no more than 1000 nM.

For the molecule `CNCCNC(=O)c1ccc(-c2cnn3ccc(NCCN(C)C(=O)OC(C)C)nc23)cc1`, the IC50 under setting [1] is no more than 100 nM.

As to `CC(C)(C)OCCNc1ccn2ncc(-c3ccc(CN)cc3)c2n1`, under setting [1], the IC50 was no more than 100 nM.

As to `CC(C)(C)OC(=O)N1CCC[C@H]1CNc1ccn2ncc(-c3ccc(C(N)=O)cc3)c2n1`, the IC50 under setting [1] is no more than 1000 nM.

With `NCc1ccc(-c2cnn3ccc(NCCOC4CCCC4)nc23)cc1`, the IC50 under setting [1] is no more than 100 nM.

For the molecule `CCOc1ncccc1-c1cnn2ccc(N3CCN(C(=O)OC(C)C)CC3)nc12`, the IC50 under setting [1] is no more than 100 nM.

With `COCCNc1ccn2ncc(-c3ccccc3)c2n1`, under setting [1], the concentration for half-maximal inhibition (IC50) is no more than 1000 nM.

In the case of `NCc1ccc(-c2cnc3ccc(NCC4CCCCC4)nn23)cc1`, the IC50 under setting [2] was no more than 1000 nM.

In the case of `COc1nc(C)ccc1-c1cnn2ccc(N3CCN(C(=O)OC(C)C)CC3)nc12`, the IC50 under setting [1] is no more than 100 nM.

On to `COCCOC(=O)N1CCN(c2ccn3ncc(-c4cccnc4OC)c3n2)CC1`, for which the IC50 under setting [1] is no more than 100 nM.

Take `COc1ccncc1-c1cnn2ccc(NCCc3ccccc3OC(F)(F)F)nc12`: under setting [1], the IC50 was no more than 100 nM.

As to `CC(C)(C)OCCNc1ccc2ncc(-c3ccc(C(N)=O)cc3)n2n1`, the IC50 under setting [2] was no more than 100 nM.

For `COc1ccccc1-c1cnn2ccc(NC[C@@H]3CCCN3C(=O)NC(C)(C)C)nc12`, the IC50 under setting [1] is no more than 100 nM.

Take `NCc1ccc(-c2cnn3ccc(NCCc4ccccc4OC(F)(F)F)nc23)cc1`: the concentration for half-maximal inhibition (IC50) under setting [1] was no more than 10 nM.

For `CC(C)CNC(=O)c1cccc(-c2ccc3ncc(-c4ccc(CN)cc4)n3n2)c1`, the IC50 under setting [2] is no more than 100 nM.

Turning to `CN(CCNc1ccn2ncc(-c3ccc(C(N)=O)cc3)c2n1)C(=O)OC(C)(C)C`, the IC50 under setting [1] was no more than 10 nM.

For `NCc1ccc(-c2cnn3ccc(NCCCOC4CCCC4)nc23)cc1`, the IC50 under setting [1] is no more than 100 nM.

Consider `CNC(=O)c1ccc(-c2cnn3ccc(NCCN(C)C(=O)OCC(C)C)nc23)cc1`, for which the IC50 under setting [1] is no more than 1000 nM.

As for `CC(C)(C)COCCNc1ccn2ncc(-c3ccc(CN)cc3)c2n1`, under setting [1], the IC50 was no more than 100 nM.

Consider `CN(CCNc1ccc2ncc(-c3ccc(C#N)cc3)n2n1)C(=O)OC(C)(C)C`, for which the IC50 under setting [2] is no more than 100 nM.

Turning to `COc1cccc(CCNc2ccc3ncc(-c4ccc(C(N)=O)cc4)n3n2)c1`, the IC50 under setting [2] is no more than 100 nM.

As for `COc1ncccc1-c1cnn2ccc(N3CCN(C(=O)CC(C)C)CC3)nc12`, the IC50 under setting [1] is no more than 100 nM.

In the case of `COCCNc1ccn2ncc(-c3ccc(CN)cc3)c2n1`, the IC50 under setting [1] is no more than 100 nM.

As to `COc1cnccc1-c1cnn2ccc(NCCN(C)C(=O)OC(C)(C)C)nc12`, the IC50 under setting [1] was no more than 10 nM.

In the case of `CC(C)(C)OC(=O)N1CCC[C@H]1CNc1ccn2ncc(C(F)(F)F)c2n1`, the IC50 under setting [1] is no more than 100 nM.

With `CC(C)OC(=O)N(C)CCNc1ccn2ncc(-c3ccc(C(N)=O)cc3)c2n1`, the IC50 under setting [1] is no more than 10 nM.

On to `COc1ccncc1-c1cnn2ccc(NCCN(C)C(=O)OC(C)C)nc12`, for which the IC50 under setting [1] was no more than 100 nM.

For the molecule `CNC(=O)c1ccc(-c2cnc3ccc(-c4cccc(C(=O)NCC(C)C)c4)nn23)cc1`, the IC50 under setting [2] was no more than 100 nM.

As for `COc1cnccc1-c1cnn2ccc(NCCOC(C)(C)C)nc12`, under setting [1], the IC50 is no more than 100 nM.

Take `COc1cnccc1-c1cnn2ccc(NCCN(C)C(=O)OC(C)C)nc12`: the IC50 under setting [1] was no more than 10 nM.

In the case of `CCCCNc1ccn2ncc(-c3ccc(CN)cc3)c2n1`, the IC50 under setting [1] is no more than 100 nM.

In the case of `COCCNc1ccn2ncc(-c3ccc(C(=O)NCCN)cc3)c2n1`, the IC50 under setting [1] was no more than 1000 nM.

For the molecule `CCCCNc1ccc2ncc(C(=O)Nc3ccc(C(=O)NCCN(C)C)cc3)n2n1`, the IC50 under setting [2] was no more than 100 nM.

Regarding `COc1cnccc1-c1cnc2ccc(-c3cccc(C(=O)NCC(C)C)c3)nn12`, the IC50 under setting [2] is no more than 100 nM.

On to `CC(=O)c1cccc(-c2ccc3ncc(-c4ccc(CN)cc4)n3n2)c1`, for which the IC50 under setting [2] is no more than 100 nM.

As to `CN(C)CCOCc1ccc(-c2cnc3ccc(NCCC(C)(C)C)nn23)cc1`, the IC50 under setting [2] was no more than 100 nM.

`CCOC(=O)N(C)CCNc1ccn2ncc(-c3ccc(C(=O)NC)cc3)c2n1`: the IC50 under setting [1] is no more than 100 nM.

In the case of `CC(C)OC(=O)N1CCN(c2ccn3ncc(-c4cccnc4F)c3n2)CC1`, the IC50 under setting [1] was no more than 100 nM.

Consider `COc1ncc(F)cc1-c1cnn2ccc(N3CCN(C(=O)OC(C)C)CC3)nc12`, for which the IC50 under setting [1] is no more than 100 nM.

Consider `COc1cnccc1-c1cnn2ccc(NCCc3ccccc3OC(F)(F)F)nc12`, for which, under setting [1], the IC50 is no more than 10 nM.

As for `CC(C)(C)OC(=O)N1CCC[C@H]1CNc1ccn2ncc(I)c2n1`, the IC50 under setting [1] was no more than 100 nM.

Regarding `CC(C)CCC(=O)c1cccc(-c2ccc3ncc(-c4ccc(CN)cc4)n3n2)c1`, the IC50 under setting [2] was no more than 100 nM.

Consider `CNC(=O)c1ccc(-c2cnn3ccc(NCCN(C)C(=O)OC(C)C)nc23)cc1`, for which the IC50 under setting [1] is no more than 10 nM.

With `CNC(=O)c1ccc(-c2cnn3ccc(NCCN(C)C(=O)OC(C)(C)C)nc23)cc1`, the IC50 under setting [1] was no more than 10 nM.

As to `CCCCNc1ccn2ncc(-c3ccc(C(=O)NCCNC)cc3)c2n1`, the IC50 under setting [1] is no more than 100 nM.

`CCCCNc1ccc2ncc(-c3ccc(CN)c(F)c3)n2n1`: under setting [2], the half-maximal inhibitory concentration (IC50) was no more than 1000 nM.

For the molecule `CC(C)CNC(=O)c1cncc(-c2ccc3ncc(-c4ccc(CN)cc4)n3n2)c1`, under setting [2], the IC50 was no more than 100 nM.
